Reference: the NIST ThermoML archive (doi:10.1021/acs.jced.6b00350)
“And” between values parts separate entries of the source, which are not always exact repeats. Identical values can stand only once.

Settings: Liquid, Hot wire method

FC(F)CC(F)(F)F [1,1,1,3,3-pentafluoropropane]
Settings | thermal conductivity
302.4 K, 9755 kPa | 0.09135 W/m/K
302.4 K, 43574 kPa | 0.104 W/m/K
302.41 K, 9754 kPa | 0.09128 W/m/K
302.43 K, 27824 kPa | 0.09846 W/m/K
302.43 K, 35521 kPa | 0.1012 W/m/K
302.43 K, 35524 kPa | 0.1013 W/m/K
302.44 K, 27822 kPa | 0.09861 W/m/K
302.47 K, 4917 kPa | 0.08905 W/m/K
302.47 K, 4920 kPa | 0.08908 W/m/K
302.49 K, 21586 kPa | 0.09609 W/m/K
302.49 K, 21587 kPa | 0.09598 W/m/K
302.51 K, 297 kPa | 0.08675 W/m/K
302.52 K, 295 kPa | 0.08688 W/m/K
302.57 K, 15359 kPa | 0.09341 W/m/K
302.57 K, 15368 kPa | 0.0935 W/m/K
302.68 K, 68021 kPa | 0.1116 W/m/K
302.68 K, 68023 kPa | 0.1115 W/m/K
302.69 K, 62436 kPa | 0.1101 W/m/K
302.7 K, 62429 kPa | 0.1097 W/m/K
302.76 K, 52483 kPa | 0.107 W/m/K
302.76 K, 52489 kPa | 0.1069 W/m/K
302.81 K, 43572 kPa | 0.104 W/m/K
302.82 K, 43572 kPa | 0.1041 W/m/K
302.85 K, 35512 kPa | 0.1012 W/m/K
302.85 K, 35521 kPa | 0.1013 W/m/K
302.87 K, 9749 kPa | 0.09105 W/m/K
302.87 K, 9754 kPa | 0.091 W/m/K
302.88 K, 27813 kPa | 0.09844 W/m/K
302.88 K, 27817 kPa | 0.09814 W/m/K
302.93 K, 4918 kPa | 0.08893 W/m/K
302.93 K, 4920 kPa | 0.0888 W/m/K
302.94 K, 21581 kPa | 0.09604 W/m/K
302.94 K, 21589 kPa | 0.09618 W/m/K
302.99 K, 297 kPa | 0.08639 W/m/K
302.99 K, 298 kPa | 0.08647 W/m/K
303.03 K, 15369 kPa | 0.09337 W/m/K
303.04 K, 15370 kPa | 0.09341 W/m/K
303.11 K, 68011 kPa | 0.1115 W/m/K
303.12 K, 68009 kPa | 0.1114 W/m/K
303.13 K, 62430 kPa | 0.11 W/m/K
303.13 K, 62436 kPa | 0.11 W/m/K
303.21 K, 52481 kPa | 0.1068 W/m/K
303.21 K, 52487 kPa | 0.1068 W/m/K
303.27 K, 43574 kPa | 0.104 W/m/K
303.27 K, 43576 kPa | 0.1041 W/m/K
303.33 K, 35513 kPa | 0.1011 W/m/K
303.33 K, 35514 kPa | 0.1012 W/m/K
303.36 K, 9753 kPa | 0.09097 W/m/K
303.36 K, 9758 kPa | 0.09104 W/m/K
303.36 K, 27804 kPa | 0.0984 W/m/K
303.37 K, 27811 kPa | 0.09842 W/m/K
303.44 K, 4916 kPa | 0.08869 W/m/K
303.44 K, 4920 kPa | 0.08879 W/m/K
303.44 K, 21579 kPa | 0.09595 W/m/K
303.44 K, 21587 kPa | 0.09607 W/m/K
303.51 K, 294 kPa | 0.08655 W/m/K
303.51 K, 297 kPa | 0.08645 W/m/K
303.54 K, 15365 kPa | 0.09343 W/m/K
303.54 K, 15366 kPa | 0.09328 W/m/K
321.62 K, 4352 kPa | 0.08273 W/m/K
321.63 K, 4356 kPa | 0.08308 W/m/K
321.64 K, 337 kPa | 0.08036 W/m/K
321.65 K, 338 kPa | 0.08047 W/m/K
321.65 K, 69905 kPa | 0.1085 W/m/K
321.65 K, 69906 kPa | 0.1083 W/m/K
321.68 K, 58591 kPa | 0.1047 W/m/K
321.68 K, 58592 kPa | 0.1049 W/m/K
321.69 K, 40553 kPa | 0.09923 W/m/K
321.7 K, 40558 kPa | 0.09918 W/m/K
321.7 K, 49855 kPa | 0.1015 W/m/K
321.7 K, 49873 kPa | 0.1019 W/m/K
321.71 K, 33193 kPa | 0.0964 W/m/K
321.71 K, 33197 kPa | 0.09631 W/m/K
321.73 K, 26150 kPa | 0.09344 W/m/K
321.73 K, 26151 kPa | 0.093 W/m/K
321.74 K, 19697 kPa | 0.09044 W/m/K
321.76 K, 19703 kPa | 0.09051 W/m/K
321.77 K, 13835 kPa | 0.08752 W/m/K
321.78 K, 13839 kPa | 0.08772 W/m/K
321.81 K, 8795 kPa | 0.08531 W/m/K
321.82 K, 8794 kPa | 0.08538 W/m/K
322.02 K, 69892 kPa | 0.1082 W/m/K
322.02 K, 69896 kPa | 0.1083 W/m/K
322.06 K, 58582 kPa | 0.1049 W/m/K
322.06 K, 58584 kPa | 0.105 W/m/K
322.07 K, 4350 kPa | 0.08295 W/m/K
322.07 K, 4352 kPa | 0.08313 W/m/K
322.08 K, 49847 kPa | 0.1021 W/m/K
322.09 K, 40542 kPa | 0.09897 W/m/K
322.09 K, 49848 kPa | 0.1021 W/m/K
322.1 K, 332 kPa | 0.08025 W/m/K
322.1 K, 40546 kPa | 0.09896 W/m/K
322.11 K, 332 kPa | 0.08034 W/m/K
322.11 K, 33198 kPa | 0.09595 W/m/K
322.12 K, 33200 kPa | 0.09642 W/m/K
322.14 K, 26147 kPa | 0.09346 W/m/K
322.15 K, 26148 kPa | 0.09328 W/m/K
322.18 K, 19689 kPa | 0.09041 W/m/K
322.18 K, 19694 kPa | 0.09034 W/m/K
322.23 K, 13831 kPa | 0.08764 W/m/K
322.23 K, 13837 kPa | 0.08773 W/m/K
322.27 K, 8791 kPa | 0.08514 W/m/K
322.27 K, 8795 kPa | 0.08522 W/m/K
322.42 K, 69875 kPa | 0.1077 W/m/K
322.42 K, 69881 kPa | 0.1077 W/m/K
322.47 K, 58570 kPa | 0.1047 W/m/K
322.48 K, 58576 kPa | 0.1046 W/m/K
322.51 K, 49828 kPa | 0.1017 W/m/K
322.51 K, 49834 kPa | 0.1019 W/m/K
322.53 K, 40525 kPa | 0.09861 W/m/K
322.53 K, 40531 kPa | 0.09882 W/m/K
322.56 K, 4352 kPa | 0.0827 W/m/K and 0.08272 W/m/K
322.56 K, 33194 kPa | 0.09577 W/m/K and 0.09565 W/m/K
322.6 K, 328 kPa | 0.08026 W/m/K
322.61 K, 332 kPa | 0.08024 W/m/K
322.61 K, 26147 kPa | 0.09305 W/m/K
322.61 K, 26148 kPa | 0.09299 W/m/K
322.65 K, 19690 kPa | 0.0904 W/m/K
322.66 K, 19689 kPa | 0.09023 W/m/K
322.71 K, 13830 kPa | 0.08772 W/m/K
322.72 K, 13830 kPa | 0.08785 W/m/K
322.76 K, 8791 kPa | 0.08512 W/m/K
322.77 K, 8793 kPa | 0.08496 W/m/K
322.85 K, 69859 kPa | 0.1077 W/m/K
322.86 K, 69861 kPa | 0.1078 W/m/K
322.92 K, 58557 kPa | 0.1047 W/m/K
322.92 K, 58569 kPa | 0.1047 W/m/K
322.96 K, 49820 kPa | 0.1018 W/m/K
322.97 K, 49830 kPa | 0.1018 W/m/K
323 K, 40517 kPa | 0.09874 W/m/K
323 K, 40525 kPa | 0.09862 W/m/K
323.04 K, 33192 kPa | 0.0959 W/m/K
323.05 K, 33192 kPa | 0.09594 W/m/K
323.09 K, 4348 kPa | 0.08267 W/m/K
323.1 K, 4349 kPa | 0.08248 W/m/K
323.1 K, 26147 kPa | 0.09286 W/m/K
323.11 K, 26150 kPa | 0.09307 W/m/K
323.15 K, 332 kPa | 0.0802 W/m/K
